From ChEMBL document CHEMBL5634082, “Recent advances in the development of inhibitors targeting KRAS-G12C and its related pathways” (Eur J Med Chem, 2023)
Blank lines part the entries; values can stand above or below the compound they belong to.

Legend:
[1] = Inhibition of ERK phosphorylation in human NCI-H358 cells incubated for 3 hrs; type: cell-based; conditions: NCI-H358, 3 h
[2] = tested on: von Hippel-Lindau disease tumor suppressor/GTPase KRas (Homo sapiens), P01116+P40337 [G12C]; assay: PROTAC activity at VHL/KRAS G12C mutant in human NCI-H2030 cells assessed as induction of protein degradation by measuring maximal efficacy at […] incubated for 24 hrs by Immunoblotting analysis relative to control; type: cell-based; conditions: dose 2.5 µM
[3] = tested on: von Hippel-Lindau disease tumor suppressor/GTPase KRas (Homo sapiens), P01116+P40337 [G12C]; assay: Protac activity at VHL/KRAS G12C mutant in human SW1573 cells assessed as induction of protein degradation by measuring maximal efficacy at […] incubated for 72 hrs by Western blot analysis relative to control; type: cell-based; conditions: dose 2.5 µM
[4] = target: von Hippel-Lindau disease tumor suppressor/GTPase KRas (Homo sapiens, UniProt P01116+P40337, G12C); assay: Protac activity at VHL/KRAS G12C mutant in human NCI-H2030 cells assessed as degradation of KRAS G12C mutant incubated for 24 hrs by immunoblot assay; type: cell-based
GTPase KRas [5] = target: GTPase KRas (Homo sapiens, UniProt P01116, G12C); assay: Inhibition of KRAS G12C mutant (unknown origin)
[6] = tested on: GTPase KRas (Homo sapiens), P01116 [G12C]; assay: Inhibition of KRAS G12C mutant (unknown origin) at 10 uM relative to control
[7] = Inhibition of ERK phosphorylation in human NCI-H358 cells harboring KRAS G12C mutant incubated for 6 hrs by Western blot analysis; type: cell-based; conditions: NCI-H358, 6 h
NCI-H441 = assay: Antiproliferative activity against human NCI-H441 cells harboring KRAS G12V mutant assessed as reduction in cell viability incubated for 72 hrs by MTT assay; type: functional, cell-based; conditions: NCI-H441, 72 h
cells = conditions: Homo sapiens, MKN-1
GTPase KRas [8] = target: GTPase KRas (Homo sapiens, UniProt P01116, G12V); assay: Binding affinity to Cys12 residue of GDP bound human KRAS […] mutant expressed in Escherichia coli BL21 Rosetta cells assessed as dissociation constant by HSQC NMR spectral analysis
[9] = Volume of distribution at steady state in iv dosed Beagle dog; type: ADME, organism-based, Canis lupus familiaris; conditions: in vivo, read-out: Vdss
[10] = Oral bioavailability in CD-1 mouse; type: ADME, organism-based; conditions: in vivo
[11] = Oral bioavailability in Sprague-Dawley rat; type: ADME, organism-based; conditions: in vivo
[12] = Volume of distribution at steady state in iv dosed CD-1 mouse; type: ADME, organism-based; conditions: in vivo, read-out: Vdss
[13] = Oral bioavailability in Beagle dog; type: ADME, organism-based, Canis lupus familiaris; conditions: in vivo
[14] = Volume of distribution at steady state in iv dosed Sprague-Dawley rat by LC-MS/MS analysis; type: ADME, organism-based; conditions: in vivo, read-out: Vdss
[15] = Clearance in iv dosed CD-1 mouse; type: ADME, organism-based; conditions: in vivo
NCI-H358 [16] = assay: Antitumor activity against human NCI-H358 cells harboring KRAS G12C mutant xenografted in mouse model assessed as tumor growth inhibition at 30 mg/kg, po relative to control; type: functional; parameters: scale not given: the % may be the effect or the level left
NCI-H358 [17] = assay: Antitumor activity against human NCI-H358 cells harboring KRAS G12C mutant xenografted in mouse model assessed as tumor growth inhibition at 10 mg/kg, po relative to control; type: functional; parameters: scale not given: the % may be the effect or the level left
NCI-H358 [18] = assay: Antitumor activity against human NCI-H358 cells harboring KRAS G12C mutant xenografted in mouse model assessed as tumor growth inhibition at 100 mg/kg, po relative to control; type: functional; parameters: scale not given: the % may be the effect or the level left

SMILES: C=CC(=O)N1CCN(c2nc(OC[C@@H]3CCCN3C)nc3c2CCN(c2cccc4ccccc24)C3)CC1
- IC50 [1]: 4400 nM

SMILES: C=C(F)C(=O)N1CCN(c2nc(OC[C@@H]3CCCN3CCC(=O)NCCOCCOCCC(=O)N[C@H](C(=O)N3C[C@H](O)C[C@H]3C(=O)NCc3ccc(-c4scnc4C)cc3)C(C)(C)C)nc3c2CCN(c2cccc4cccc(Cl)c24)C3)C[C@@H]1CC#N
- Emax [2]: 30%

SMILES: C=C(F)C(=O)N1CCN(c2nc(OC[C@@H]3CCCN3CCCOCCC(=O)N[C@H](C(=O)N3C[C@H](O)C[C@H]3C(=O)NCc3ccc(-c4scnc4C)cc3)C(C)(C)C)nc3c2CCN(c2cccc4cccc(Cl)c24)C3)C[C@@H]1CC#N
- Emax [3]: 90%
- Emax [2]: 75%
- DC50 [4]: 590 nM

- IC50 (GTPase KRas [5]): 1540 nM
- inhibition [6]: 91.3%
SMILES: C=CC(=O)N1CCN(c2nc(OCC34CCCN3CCC4)nc3c2cc(-c2cccc4cccc(C)c24)n3C)C[C@@H]1CC#N

- inhibition [6]: 17%
SMILES: C=CC(=O)N1CCN(c2nc(OC[C@@H]3CCCN3C)nc3c2cc(-c2cccc4ccccc24)n3C)C[C@@H]1CC#N

SMILES: C=C(F)C(=O)N1CCN(c2nc(OC[C@@H]3CCCN3CCCCOCCC(=O)N[C@H](C(=O)N3C[C@H](O)C[C@H]3C(=O)NCc3ccc(-c4scnc4C)cc3)C(C)(C)C)nc3c2CCN(c2cccc4cccc(Cl)c24)C3)C[C@@H]1CC#N
- Emax [3]: 90%
- DC50 [4]: 880 nM

SMILES: C=CC(=O)N1CC2(CC(n3nc(-c4ccc5[nH]ncc5c4)c(-c4c(Cl)c(C)cc5[nH]ncc45)c3C)C2)C1
- IC50 [7]: 20 nM

- IC50 (GTPase KRas [5]): 340 nM
- inhibition [6]: 98.6%
SMILES: C=CC(=O)N1CCN(c2nc(OC[C@@]34CCCN3C[C@H](F)C4)nc3c2cc(-c2cccc4cccc(C)c24)n3C)C[C@@H]1CC#N

SMILES: CC1(C)CCCc2sc(N)c(C#N)c21
- IC50 (NCI-H441): < 10000 nM

SMILES: C=CC(=O)N1CC2(CC(n3nc(C(C)C)c(-c4c(C)ccc5[nH]ncc45)c3C)C2)C1
- IC50 [7]: 3900 nM

SMILES: C=C(F)C(=O)N1CCN(c2nc(OC[C@@H]3CCCN3CCC(=O)NCCC(=O)N[C@H](C(=O)N3C[C@H](O)C[C@H]3C(=O)NCc3ccc(-c4scnc4C)cc3)C(C)(C)C)nc3c2CCN(c2cccc4cccc(Cl)c24)C3)C[C@@H]1CC#N
- Emax [2]: 85%
- DC50 [4]: 6400 nM

SMILES: Cc1c([C@@H](C)Nc2nnc(C)c3ccc(N4CCNCC4)cc23)cccc1C(F)(F)F
- IC50 (cells): 74 nM

- Kd (GTPase KRas [8]): < 10000 nM
SMILES: C[C@]1(c2nc(-c3cccc(N)c3)no2)CCCc2sc(N)c(C#N)c21

SMILES: Cc1c(C#N)cccc1[C@@H](C)Nc1nnc(C)c2cnc(N3CCOCC3)cc12 [MRTX-0902]
- Vd [9]: 0.28 L/kg
- bioavailability [10]: 38%
- bioavailability [11]: 38%
- Vd [12]: 0.28 L/kg
- bioavailability [13]: 38%
- Vd [14]: 0.28 L/kg
- clearance [15]: 4.4 mL/min/kg

SMILES: C=CC(=O)N1CC2(CC(n3nc(-c4ccc5c(cnn5C)c4)c(-c4c(Cl)c(C)cc5[nH]ncc45)c3C)C2)C1 [OPNURASIB]
- IC50 [7]: 20 nM

- inhibition [6]: 39.8%
SMILES: C=CC(=O)N1CCN(c2nc(OC[C@@H]3CCCN3C)nc3c2cc(-c2cccc4cccc(C)c24)n3C)C[C@@H]1CC#N

SMILES: Cc1c([C@@H](C)Nc2nnc(C)c3cnc(N4CCOCC4)cc23)cccc1C(F)(F)F
- IC50 (cells): 26 nM

- Kd (GTPase KRas [8]): < 10000 nM
SMILES: C[C@]1(c2nc(-c3ccc(N)cc3)no2)CCCc2sc(N)c(C#N)c21

SMILES: N#Cc1c(N)sc2c1CCCC2
- IC50 (NCI-H441): 16000 nM

SMILES: C=CC(=O)N1CC2(CC(n3nc(-c4ccccc4)c(-c4c(Cl)c(C)cc5[nH]ncc45)c3C)C2)C1
- IC50 [7]: 40 nM

SMILES: C=C(F)C(=O)N1CCN(c2nc(OC[C@@H]3CCCN3CCOCCOCCC(=O)N[C@H](C(=O)N3C[C@H](O)C[C@H]3C(=O)NCc3ccc(-c4scnc4C)cc3)C(C)(C)C)nc3c2CCN(c2cccc4cccc(Cl)c24)C3)C[C@@H]1CC#N
- Emax [3]: 50%
- DC50 [4]: > 10000 nM

SMILES: C=CC(=O)N1CCN(c2nc(OC[C@@H]3CCCN3C)nc3c2CCN(c2cccc4ccccc24)C3)C[C@@H]1CC#N
- IC50 [1]: 10 nM

SMILES: C=C(F)C(=O)N1CCN(c2nc(OC[C@@H]3CCCN3CCC(=O)NCCOCCC(=O)N[C@H](C(=O)N3C[C@H](O)C[C@H]3C(=O)NCc3ccc(-c4scnc4C)cc3)C(C)(C)C)nc3c2CCN(c2cccc4cccc(Cl)c24)C3)C[C@@H]1CC#N
- Emax [2]: 35%

SMILES: C=CC(=O)N1CCN(c2nc(OC[C@@H]3CCCN3C)nc3c2CCN(c2cccc4cccc(Cl)c24)C3)C[C@@H]1CC#N
- Activity (NCI-H358 [16]): 89%
- Activity (NCI-H358 [17]): 70%
- Activity (NCI-H358 [18]): 90%
